Experimental data published in ChEMBL document CHEMBL1130476, “Molecular modeling of the interaction of trypanocide guanyl hydrazones with B-DNA” (1997).

Test system: Trypanosoma cruzi
Experiment: Inhibitory dose for selectivity against Trypanosoma cruzi
Assay type: functional
Settings: read-out: ID50 (the source's name)

SMILES	IC50 [µM]
N=C(N)N/N=C/c1cccc([N+](=O)[O-])c1O	877
N=C(N)N/N=C/c1ccc2c(c1)OCO2	274
COc1cc(/C=N/NC(=N)N)ccc1O	4800
COc1cccc(/C=N/NC(=N)N)c1OC	22.5
N=C(N)N/N=C/c1ccc(Cl)cc1	27.4
N=C(N)N/N=C/c1ccccc1	205
N=C(N)N/N=C/c1cc2c(cc1Br)OCO2	23.7
